Test results as given in patent publication US8791163B2 (McGill University, priority 2006, dated 2014).
Several values for one entry are separate records, joined by “and”; a condition that tells them apart may be missing. Equal values may be shown once.

What was measured:
[1] = tested on: dorsal raphe 5-HT neurons; assay: In vivo electrophysiological recording of 5-HT firing activity; set-up: species or system rat
From the text: Serotonin (5-HT) neurons are implicated in the regulation of mood (for a review see Gobbi G, (2005) Inter. Rev. Neurobiology 65: 249-271). The increase in serotonergic neurotransmission is linked to the action of antidepressant drugs. For example fluoxetine (Prozac) increases the 5-HT availability by blocking its […]; mirtazapine (Remeron) increases 5-HT firing activity via an indirect alpha-2 receptor blockade. Consequently, in order to test if compound 5b increases the 5-HT firing activity, in vivo 5-HT neuron activity was recorded after single (40 or 80 mg/kg, subcutaneous) and repeated injections with compound 5b (40 mg/kg, i.p. once a day, for 4 days). For animals treated with a single injection (acute) the recording was done immediately following the injection. For animals treated with repeated injection (sub-chronic) the recording was done 24 hours after the last injection (FIG. 6).
Rats (Sprague-Dawley) were anesthetized with chloral hydrate (400 mg/kg i.p.) and placed in a stereotaxic frame (David Kopf Instruments) with the skull positioned horizontally. To maintain a full anesthetic state in which there is no reaction to a tail or paw pinch, chloral hydrate supplements of 100 mg/kg were given as needed. A burr hole was drilled in the midline, 0.9 to 1.2 mm anterior to interaural zero (Paxinos, G. and Watson, C. (1982); The rat brain in Stereotaxic Coordinates; Academy, Sydney). Dorsal raphe was encountered just below the Sylvius aqueduct, 5.0 to 6.5 mm ventral to dura mater. The dorsal raphe 5-HT neurons, in physiological conditions, were identified according to the following criteria: a slow (0.5-2.5 Hz) and regular firing rate; and a long-duration (0.8-1.2 ms) positive action potential (Baraban and Aghajanian (1980) Neuropharmacology 19, 355-363). Neuronal activity was recorded and processed by a computer connected to CED1401 interface-Spike 2 software (Cambridge Electronic Design, Cambridge, UK).

[2] = target: T1, cloned human MT2 receptors (Homo sapiens, UniProt P49286); assay: 2-[125I]iodomelatonin competition binding, human MT2 in NIH3T3 cells; conditions: human recombinant receptors expressed in NIH3T3 cells
T1 construct: expressed in transfected cells
T1 sequence (P49286 1-362): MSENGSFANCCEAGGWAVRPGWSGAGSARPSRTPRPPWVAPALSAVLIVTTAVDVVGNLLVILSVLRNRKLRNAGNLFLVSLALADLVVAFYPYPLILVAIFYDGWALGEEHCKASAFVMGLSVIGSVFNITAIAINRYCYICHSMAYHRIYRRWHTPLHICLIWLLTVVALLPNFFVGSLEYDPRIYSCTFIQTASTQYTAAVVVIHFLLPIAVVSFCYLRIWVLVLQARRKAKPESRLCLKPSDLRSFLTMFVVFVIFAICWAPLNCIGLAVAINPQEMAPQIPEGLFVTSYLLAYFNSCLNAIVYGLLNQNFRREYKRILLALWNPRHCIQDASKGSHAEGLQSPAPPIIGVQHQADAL

[3] = target: T2, cloned human MT1 receptors (Homo sapiens, UniProt P48039); assay: [35S]GTPγS binding assay, NIH3T3 cells expressing human MT1; type: biochemical
T2 construct: expressed in transfected cells
T2 sequence (P48039 whole entry): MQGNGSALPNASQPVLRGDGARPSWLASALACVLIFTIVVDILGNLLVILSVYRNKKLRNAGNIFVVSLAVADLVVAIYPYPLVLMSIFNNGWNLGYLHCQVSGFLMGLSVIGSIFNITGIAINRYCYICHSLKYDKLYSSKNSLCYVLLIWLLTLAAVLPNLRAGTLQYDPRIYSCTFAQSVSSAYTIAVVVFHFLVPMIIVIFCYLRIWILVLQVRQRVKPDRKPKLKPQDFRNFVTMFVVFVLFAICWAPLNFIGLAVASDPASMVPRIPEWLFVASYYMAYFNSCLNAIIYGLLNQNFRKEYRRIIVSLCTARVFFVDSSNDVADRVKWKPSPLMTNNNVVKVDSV

- higher affinity for the MT2 than for the MT1 subtype [2]: ~100 fold
- functional behaviour (maximal stimulation of basal [35S]GTPγS binding lower than melatonin) ([3]; MT1 and MT2): partial agonist
- MT1 IAr ± SEM (relative intrinsic activity) ([3]; maximal net effect relative to MLT): 0.8 and 0.79 ± 0.03
Compound: COc1cccc(N(CCNC(C)=O)c2ccccc2)c1 [5b, N-{2-[(3-Methoxyphenyl)-phenylamino]ethyl}acetamide]
- increase of spontaneous activity of 5-HT neurons ([1]; acute single injection 40 mg/kg subcutaneous): 40%
- 5-HT neuron firing rate ([1]; acute single injection 40 mg/kg subcutaneous (control 0.66 Hz)): 0.93 Hz
- increase of spontaneous activity of 5-HT neurons ([1]; acute single injection 80 mg/kg subcutaneous): 106%
- 5-HT neuron firing rate ([1]; acute single injection 80 mg/kg subcutaneous (control 0.66 Hz)): 1.36 Hz
- increase of spontaneous activity of 5-HT neurons ([1]; sub-chronic 40 mg/kg i.p. once a day for 4 days, recorded 24 h after last injection): 133%
- 5-HT neuron mean firing rate ([1]; sub-chronic 40 mg/kg once a day for 4 days, recorded 24 h after last injection (control 1.2 Hz)): 2.8 Hz and 2.80 Hz
